The experiment deals with BRD2BD1, BRD2BD2, BRD3BD1, BRD3BD2, BRD4BD1, BRD4BD2 EGFP reporters. The experiment is described as follows: EGFP/mCherry reporter assay across individual BET bromodomains. The class given is cell-based, human. The settings on record: BRD2/3/4 BD1 and BD2 reporter cells, 5 h. On the technique in general: Reporter assays use an easily measured gene product as a stand-in for the process of interest.

The values below come from publication PMC6202246 (Nature chemical biology, 2018).

Molecules are shown by their SMILES.

For `Cc1sc2c(c1C)C(c1ccc(Cl)cc1)=N[C@@H](CC(=O)NCCCCCCCCNC(=O)COc1cccc3c1C(=O)N(C1CCC(=O)NC1=O)C3=O)c1nnc(C)n1-2` (stereo partly shown) [dBET6], the “activity profile across BET bromodomain reporters” value was “activity on most bromodomains”.
